Experimental findings from patent US20230183249A1, “NEW TRIAZINOINDOLE COMPOUNDS” (JANSSEN PHARMACEUTICA NV, priority 2020, published 2023) are described below.

pEC50, pIC50: −log10 of the molar value.

Data set [1] relates to TNF. In words: PBMC assay, TNF cytokine levels after LPS stimulation. It is filed as cell-based. The settings on record: human PBMCs, 100 ng/ml LPS for 6 hrs, TNF in supernatant via MSD. The method, then: (§1) Peripheral venous blood was collected from healthy individuals and human peripheral blood mononuclear cells (PBMCs) were isolated from blood by Ficoll-Histopaque (Sigma-Aldrich, A0561) density gradient centrifugation. After isolation, PBMCs were stored in liquid nitrogen for later use. Upon thawing, PBMC cell viability was determined in growth medium (RPMI media supplemented with 10% fetal bovine serum, 1% Pen-Strep and 1% L-glutamine). Compounds were spotted in a 1:3 serial dilution in DMSO and diluted to the final concentration in 30 μl medium in 96 well plates (Falcon, 353072). PBMCs were added at a density of 7.5×10^4 cells per well and incubated for 30 min in a 5% C02 incubator at 37° C. LPS stimulation was performed by addition of 100 ng/ml LPS (final concentration, Invivogen, tlrl-smlps) for 6 hrs followed by collection of cellular supernatant and the analysis of IL-1β (μM) and TNF cytokines levels (μM) via MSD technology according to manufacturers' guidelines (MSD, K151A0H).
The IC50 values (for IL-1β) and EC50 values (TNF) were obtained on compounds of the invention/examples, and are depicted in the following table: […]

In data set [2] the target is T1, NLRP3 (Homo sapiens, UniProt Q96P20).
T1 construct: human peripheral blood mononuclear cells (PBMCs) were isolated from blood; endogenous in cells; host or cells: primary human PBMCs from healthy donors
T1 sequence (Q96P20 whole entry): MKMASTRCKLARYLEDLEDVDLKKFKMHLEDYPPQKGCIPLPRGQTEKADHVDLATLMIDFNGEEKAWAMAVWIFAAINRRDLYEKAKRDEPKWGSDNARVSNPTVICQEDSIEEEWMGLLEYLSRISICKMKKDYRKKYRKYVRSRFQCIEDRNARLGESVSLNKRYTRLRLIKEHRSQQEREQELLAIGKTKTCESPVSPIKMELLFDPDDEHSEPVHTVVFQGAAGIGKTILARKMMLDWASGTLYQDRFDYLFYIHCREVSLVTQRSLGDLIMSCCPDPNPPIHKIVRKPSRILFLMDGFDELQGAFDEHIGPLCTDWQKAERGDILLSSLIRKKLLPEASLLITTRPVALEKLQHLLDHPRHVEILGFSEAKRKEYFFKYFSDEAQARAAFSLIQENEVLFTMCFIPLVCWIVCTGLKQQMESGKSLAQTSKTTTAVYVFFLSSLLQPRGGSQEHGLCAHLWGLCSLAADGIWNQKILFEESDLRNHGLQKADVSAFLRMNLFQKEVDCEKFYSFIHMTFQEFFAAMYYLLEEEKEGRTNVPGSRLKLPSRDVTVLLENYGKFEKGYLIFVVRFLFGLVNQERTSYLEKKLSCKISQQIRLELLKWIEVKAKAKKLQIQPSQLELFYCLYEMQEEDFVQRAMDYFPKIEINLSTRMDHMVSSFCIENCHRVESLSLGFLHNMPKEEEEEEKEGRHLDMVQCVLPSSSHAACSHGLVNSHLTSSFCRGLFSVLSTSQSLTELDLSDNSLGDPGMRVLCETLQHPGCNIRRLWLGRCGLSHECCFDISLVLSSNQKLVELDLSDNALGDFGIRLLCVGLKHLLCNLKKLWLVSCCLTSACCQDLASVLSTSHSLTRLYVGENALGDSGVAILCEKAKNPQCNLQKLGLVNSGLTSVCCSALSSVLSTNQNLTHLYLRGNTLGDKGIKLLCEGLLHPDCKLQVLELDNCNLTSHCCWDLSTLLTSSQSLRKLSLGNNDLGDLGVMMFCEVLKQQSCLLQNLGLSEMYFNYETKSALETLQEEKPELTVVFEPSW
Kind of data set: PBMC assay, IL-1β release after LPS stimulation. It is filed as cell-based. Conditions: human PBMCs, 100 ng/ml LPS for 6 hrs, IL-1β in supernatant via MSD; read-out: IL1β IC50. The method, then: The activity of a compound according to the present invention can be assessed by in vitro methods.
as §1, with “Compounds were spotted in a 1:3 serial dilution in DMSO and diluted to the final concentration in 30 μl medium in 96 well plates (Falcon, 353072).” left out

In general, melting point refers to the temperature, or range, at which the solid turns liquid. The pEC50 is the EC50 on a negative log10 scale, so that one unit is a factor of ten. Usually pIC50 stands for the IC50 on a negative log10 scale, so that one unit is a factor of ten. As for `CCc1nn(CC(=O)NC2CCOCC2)c(=O)c2cc3cc(F)ccc3n12` [Final Cpd 35], the melting point was 285.66 °C. In data set [1], this compound gave a pEC50 of less than 5.00. Besides, in data set [2], the pIC50 was less than 5.00.
`CCc1nn(CC(=O)Nc2ccn(C(C)C)n2)c(=O)c2cc3ccccc3n12` [Final Cpd 38] registered a melting point of 243 °C. In addition, in data set [1], the pEC50 is less than 4.70. For the same compound, the pIC50 in data set [2] is 5.11.
